Data as given in patent publication US10294202B2, “Pyrrolidinones as herbicides” (FMC Corporation, priority 2013, dated 2019).

Legend:
pigweed = test: Test C pre-/postemergence herbicide test; type: in vivo, Amaranthus retroflexus
Outline: (§1)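 Greenhouse pots; formulation = non-phytotoxic solvent mix + surfactant. PRE onto seeds in loam:sand; POST at 1–4 leaves (2–18 cm) in peat moss/vermiculite medium. Read-out: visual % control vs untreated, day 13–15.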

oilseed rape = test: Test C pre-/postemergence herbicide test; type: in vivo, Brassica napus
Outline: as §1

soybean = test: Test C pre-/postemergence herbicide test; type: in vivo, Glycine max
Outline: as §1

blackgrass = test: Test C pre-/postemergence herbicide test; type: in vivo, Alopecurus myosuroides
Outline: as §1

foxtail, giant = test: Test C pre-/postemergence herbicide test; type: in vivo, Setaria faberii
Outline: as §1

barnyardgrass [1] = test: Test C pre-/postemergence herbicide test; type: in vivo, Echinochloa crus-galli
Outline: as §1

galium = test: Test C pre-/postemergence herbicide test; type: in vivo, Galium aparine
Outline: as §1

crabgrass, large = test: Test C pre-/postemergence herbicide test; type: in vivo, Digitaria sanguinalis
Outline: as §1

oat, wild = test: Test C pre-/postemergence herbicide test; type: in vivo, Avena fatua; details: Postemergence
Outline: as §1

velvetleaf = test: Test C pre-/postemergence herbicide test; type: in vivo, Abutilon theophrasti
Outline: as §1

wheat (winter wheat) = test: Test C pre-/postemergence herbicide test; type: in vivo, Triticum aestivum
Outline: as §1

barnyardgrass [2] = test: Test A pre-/postemergence herbicide test; type: in vivo, Echinochloa crus-galli
Outline: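 Greenhouse pot test with pre- and postemergence application of surfactant-containing solvent formulations. Postemergence plants were 2–10 cm, one- to two-leaf stage. Response scored visually after ~10 days, 0 (no effect) to 100 (complete control).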

[3] = Postemergence, 31 g ai/ha, scale 0 to 100 (0 no effect, 100 complete control)
[4] = Postemergence, 62 g ai/ha, scale 0 (no effect) to 100 (complete control)
[5] = Postemergence, 125 g ai/ha, scale 0 to 100 (0 no effect, 100 complete control)
[6] = Postemergence, 250 g ai/ha, scale 0 to 100 (0 no effect, 100 complete control)
[7] = Preemergence, 31 g ai/ha, scale 0 to 100, 0 is no effect and 100 is complete control
[8] = Preemergence, 62 g ai/ha, scale 0 to 100 (0 no effect, 100 complete control)
[9] = Preemergence, 125 g ai/ha, scale 0 to 100

Structure (SMILES): O=C1NCC(c2cccc(Br)c2)C1C(=O)Nc1ccc(F)c(F)c1F (stereo not shown) [Compound 310]
- Plant response rating, Pigweed (pigweed; [3]): 35
- Plant response rating, Pigweed (pigweed; [4]): 40
- Plant response rating, Pigweed (pigweed; [5]): 60
- Plant response rating, Pigweed (pigweed; [6]): 70
- Pigweed plant response rating (pigweed; [7]): 0
- Pigweed plant response rating (pigweed; [8]): 5
- Plant response rating, Pigweed (pigweed; [9]): 20
- Plant response rating (scale of 0 to 100), Pigweed (pigweed; Preemergence, 250 g ai/ha): 20
- Plant response rating, Oilseed Rape (oilseed rape; [3]): 0
- Plant response rating, Oilseed Rape (oilseed rape; [4]): 0
- Plant response rating, Oilseed Rape (oilseed rape; [5]): 0
- Plant response rating, Oilseed Rape (oilseed rape; [6]): 40
- Oilseed Rape plant response rating (oilseed rape; [7]): 0
- Oilseed Rape plant response rating (oilseed rape; [8]): 5
- Plant response rating, Oilseed Rape (oilseed rape; [9]): 40
- Plant response rating (scale of 0 to 100), Oilseed Rape (oilseed rape; Preemergence, 250 g ai/ha): 85
- Plant response rating, Soybean (soybean; [3]): 10
- Plant response rating, Soybean (soybean; [4]): 10
- Plant response rating, Soybean (soybean; [5]): 0
- Plant response rating, Soybean (soybean; [6]): 0
- Soybean plant response rating (soybean; [8]): 0
- Plant response rating, Soybean (soybean; [9]): 0
- Plant response rating (scale of 0 to 100), Soybean (soybean; Preemergence, 250 g ai/ha): 0
- Plant response rating, Blackgrass (blackgrass; [3]): 0
- Plant response rating, Blackgrass (blackgrass; [4]): 0
- Plant response rating, Blackgrass (blackgrass; [5]): 5
- Plant response rating, Blackgrass (blackgrass; [6]): 5
- Blackgrass plant response rating (blackgrass; [7]): 0
- Blackgrass plant response rating (blackgrass; [8]): 5
- Plant response rating, Blackgrass (blackgrass; [9]): 50
- Plant response rating (scale of 0 to 100), Blackgrass (blackgrass; Preemergence, 250 g ai/ha): 45
- Plant response rating, Foxtail, Giant (foxtail, giant; [3]): 0
- Plant response rating, Foxtail, Giant (foxtail, giant; [4]): 5
- Plant response rating, Foxtail, Giant (foxtail, giant; [5]): 30
- Plant response rating, Foxtail, Giant (foxtail, giant; [6]): 70
- Foxtail, Giant plant response rating (foxtail, giant; [7]): 80
- Foxtail, Giant plant response rating (foxtail, giant; [8]): 85
- Plant response rating, Foxtail, Giant (foxtail, giant; [9]): 90
- Plant response rating (scale of 0 to 100), Foxtail, Giant (foxtail, giant; Preemergence, 250 g ai/ha): 90
- Plant response rating, Barnyardgrass (barnyardgrass [1]; [3]): 5
- Plant response rating, Barnyardgrass (barnyardgrass [1]; [4]): 25
- Plant response rating, Barnyardgrass (barnyardgrass [1]; [5]): 50
- Plant response rating, Barnyardgrass (barnyardgrass [1]; [6]): 75
- Barnyardgrass plant response rating (barnyardgrass [1]; [7]): 50
- Barnyardgrass plant response rating (barnyardgrass [1]; [8]): 90
- Plant response rating, Barnyardgrass (barnyardgrass [1]; Preemergence, 125 g ai/ha, scale 0 to 100 (0 no effect, 100 complete control)): 90
- Plant response rating (scale of 0 to 100; 0 is no effect, 100 is complete control), Barnyardgrass (barnyardgrass [1]; Preemergence, 250 g ai/ha): 95
- Plant response rating, Galium (galium; [3]): 35
- Plant response rating, Galium (galium; [4]): 50
- Plant response rating, Galium (galium; [5]): 50
- Plant response rating, Galium (galium; [6]): 65
- Galium plant response rating (galium; [7]): 0
- Galium plant response rating (galium; [8]): 0
- Plant response rating, Galium (galium; [9]): 0
- Plant response rating (scale of 0 to 100), Galium (galium; Preemergence, 250 g ai/ha): 70
- Plant response rating, Crabgrass, Large (crabgrass, large; [3]): 0
- Plant response rating, Crabgrass, Large (crabgrass, large; [4]): 10
- Plant response rating, Crabgrass, Large (crabgrass, large; [5]): 70
- Plant response rating, Crabgrass, Large (crabgrass, large; [6]): 70
- Crabgrass, Large plant response rating (crabgrass, large; [7]): 90
- Crabgrass, Large plant response rating (crabgrass, large; [8]): 90
- Plant response rating, Crabgrass, Large (crabgrass, large; [9]): 95
- Plant response rating (scale of 0 to 100), Crabgrass, Large (crabgrass, large; Preemergence, 250 g ai/ha): 95
- Plant response rating, Oat, Wild (oat, wild; 31 g ai/ha, scale 0 to 100 (0 no effect, 100 complete control)): 0
- Plant response rating, Oat, Wild (oat, wild; 62 g ai/ha, scale 0 (no effect) to 100 (complete control)): 0
- Plant response rating, Oat, Wild (oat, wild; 125 g ai/ha, scale 0 to 100 (0 no effect, 100 complete control)): 0
- Plant response rating, Oat, Wild (oat, wild; 250 g ai/ha, scale 0 to 100 (0 no effect, 100 complete control)): 0
- Plant response rating, Velvetleaf (velvetleaf; [3]): 35
- Plant response rating, Velvetleaf (velvetleaf; [4]): 0
- Plant response rating, Velvetleaf (velvetleaf; [5]): 0
- Plant response rating, Velvetleaf (velvetleaf; [6]): 40
- Velvetleaf plant response rating (velvetleaf; [8]): 0
- Plant response rating, Velvetleaf (velvetleaf; [9]): 5
- Plant response rating (scale of 0 to 100), Velvetleaf (velvetleaf; Preemergence, 250 g ai/ha): 35
- Plant response rating, Wheat (wheat (winter wheat); [3]): 0
- Plant response rating, Wheat (wheat (winter wheat); [4]): 0
- Plant response rating, Wheat (wheat (winter wheat); [5]): 0
- Plant response rating, Wheat (wheat (winter wheat); [6]): 0
- Wheat plant response rating (wheat (winter wheat); [8]): 0
- Plant response rating, Wheat (wheat (winter wheat); [9]): 0
- Plant response rating (scale of 0 to 100), Wheat (wheat (winter wheat); Preemergence, 250 g ai/ha): 10
- Plant response rating, Barnyardgrass (barnyardgrass [2]; Postemergence, 125 g ai/ha, visual rating on 0 to 100 scale (0 no effect, 100 complete control), approx. 10 days): 90
- Plant response rating, Barnyardgrass (barnyardgrass [2]; Postemergence, 500 g ai/ha, 0 to 100 scale (0 no effect, 100 complete control)): 90
- Plant response rating, Barnyardgrass (barnyardgrass [2]; Preemergence, 125 g ai/ha, 0 to 100 scale where 0 is no effect and 100 is complete control): 90
- Barnyardgrass plant response rating (barnyardgrass [2]; Preemergence, 500 g ai/ha, visual rating on 0 to 100 scale (0 no effect, 100 complete control)): 90
